Paper PMC11855827, “High-Throughput Screening of Five Compound Libraries for Anthelmintic Activity and Toxicity Leads to the Discovery of Two Flavonoid Compounds” (International Journal of Molecular Sciences, 2025)
Where “and” joins values, the source holds several entries; their conditions need not be identical. Equal values may be shown once. Where a name gives a salt, the structure may show the parent alone. Read-outs that look alike come from different tables or passages of the source.

Test system: C. elegans
[1] = Table S2, C. elegans SS assay, 110 μM, 0 h, averages of 4 data points
[2] = Table S2, C. elegans SS assay, 110 μM, 24 h, averages of 4 data points

Row | Compound | Percentage of motility inhibition 0 h [1] | Percentage of motility inhibition 24 h [2] | Percentage of motility inhibition 0 h (110 µM) | Percentage of motility inhibition 24 h (110 µM)
1 | C=C(C)[C@@H]1CC[C@]2(C=O)CC[C@]3(C)[C@H](CC[C@@H]4[C@@]5(C)CC[C@H](O)C(C)(C)[C@@H]5CC[C@]43C)[C@@H]12 [Betulinaldehyde] | 7% and 0% | 3% and 9% | – | –
2 | C=C(C)[C@@H]1CC[C@]2(C(=O)O)CC[C@]3(C)[C@H](CC[C@@H]4[C@@]5(C)CCC(=O)C(C)(C)[C@@H]5CC[C@]43C)[C@@H]12 [Betulonic acid] | 24% | 26% | – | –
3 | C=CC1=C(C)/C(=C/C2=NC(=C\c3[nH]c(/C=C4\NC(=O)C(C)=C4C=C)c(C)c3CCC(=O)O)/C(CCC(=O)O)=C2C)NC1=O [Biliverdin (hydrochloride)] | 0% | 1% | – | –
4 | COc1ccc(-c2coc3cc(O)cc(O)c3c2=O)cc1 [Biochanin A] | 7% | 0% | – | –
5 | CC(=O)OC[C@@]12CC[C@@H](C)[C@](C)(CCC3=CC(=O)OC3)[C@H]1C[C@H](O)C=C2CO [Blinin] | 0% | 7% | – | –
6 | COc1cc(O)c2c(c1)O[C@H](c1cc(O)cc(O)c1)CC2=O [Blumeatin] | 21% | 11% | – | –
7 | C=C1C(=O)O[C@H]2C[C@@H](C)[C@@H]3[C@@H](OC(C)=O)C[C@H](O)[C@@]3(C)[C@@H](OC(C)=O)[C@H]12 [Britannin] | 14% | 5% | – | –
8 | CC1=CC(=O)[C@@H](O)[C@]2(C)[C@H]3[C@@H](O)[C@H](O)[C@@]4(C)OC[C@@]35[C@@H](C[C@@H]12)OC(=O)[C@H](O)[C@]54O [Bruceine D] | 25% | 54% | – | –
9 | C[C@H]1O[C@@H](O[C@H]2CC[C@@]3(C)[C@@H](CC[C@]4(C)[C@@H]3C=CC3=C5CC(C)(C)CC[C@]5(CO)[C@@H](O)C[C@]34C)[C@]2(C)CO)[C@H](O[C@@H]2O[C@H](CO)[C@@H](O)[C@H](O)[C@H]2O)[C@@H](O[C@@H]2O[C@H](CO)[C@@H](O)[C@H](O)[C@H]2O)[C@H]1O [Buddlejasaponin IVb] | 0% | 4% | – | –
10 | C=C1C2CCC3(C4C[C@H]5C6(CCC[C@@]5(C)CN(CC)C46)[C@H]3[C@H]2O)[C@@H]1O [Bullatine A] | 0% | 3% | – | –
11 | CN(Cc1ccc(C(C)(C)C)cc1)Cc1cccc2ccccc12.Cl [Butenafine (Hydrochloride)] | 43% | 0% | – | –
12 | Clc1ccc(CCC(Cn2ccnc2)Sc2c(Cl)cccc2Cl)cc1.O=[N+]([O-])O (stereo not shown) [Butoconazole (nitrate)] | 45% | 46% | – | –
13 | CCCCC1OC(=O)c2ccccc21 (stereo not shown) [Butylphthalide] | 0% | 18% | – | –
14 | Cc1ccc(Nc2cc(-c3cccc(N4C(=O)c5ccccc5C4=O)c3)ncn2)cc1NS(C)(=O)=O [CDK9‐IN‐1] | 54% | 3% | – | –
15 | C[C@@]12CCc3occc3[C@H]1CC[C@@]13C[C@@H](CC[C@H]12)[C@@](O)(CO)C3 [Cafestol] | 0% | 28% | – | –
16 | CC1(C)CC[C@]2(C(=O)O)CC[C@]3(C)C(=CC[C@@H]4[C@@]5(C)CC[C@H](O[C@@H]6O[C@H](C(=O)O)[C@@H](O)[C@H](O)[C@H]6O)C(C)(C)[C@@H]5CC[C@]43C)[C@@H]2C1 [Calenduloside E] | 0% | 0% | – | –
17 | CN1CC[C@]23c4ccccc4N[C@H]1[C@]21CCN(C)[C@H]3Nc2ccccc21 [Calycanthine] | 0% | 0% | – | –
18 | COc1ccc(-c2coc3cc(O[C@@H]4O[C@H](CO)[C@@H](O)[C@H](O)[C@H]4O)ccc3c2=O)cc1O [Calycosin‐7‐O‐β‐D‐glucoside] | 20% | 11% | – | –
19 | c1ccc2c(-c3nccs3)c[nH]c2c1 [Camalexin] | 50% | 27% | – | –
20 | CC1(C)S[C@@H]2[C@H](NC(=O)C(C(=O)[O-])c3ccccc3)C(=O)N2[C@H]1C(=O)[O-].[Na+].[Na+] (stereo partly shown) [Carbenicillin (disodium)] | 27% | 27% | – | –
21 | C=C1[C@@H]2CC[C@H]3[C@]4(C)C[C@H](O[C@@H]5O[C@H](CO)[C@@H](OS(=O)(=O)O)[C@H](OS(=O)(=O)O)[C@H]5OC(=O)CC(C)C)CC(C(=O)[O-])(C(=O)[O-])[C@H]4CC[C@]3(C2)[C@H]1O.[K+].[K+] [Carboxyatractyloside (dipotassium)] | 15% | 18% | – | –

Row | Compound | Percentage of motility inhibition 0 h [1] | Percentage of motility inhibition 24 h [2] | Percentage of motility inhibition 0 h (110 µM) | Percentage of motility inhibition 24 h (110 µM)
22 | C=C1[C@@H]2CC[C@H]3[C@]4(C)C[C@H](O[C@H]5O[C@@H](CO)[C@H](OS(=O)(=O)[O-])[C@@H](OS(=O)(=O)[O-])[C@@H]5OC(=O)CC(C)C)C[C@@](C(=O)[O-])(C(=O)O)[C@H]4CC[C@]3(C2)[C@H]1O.[K+].[K+].[K+] [Carboxyatractyloside (tripotassium)] | 23% | 23% | – | –
23 | COc1cc(O)cc(O)c1C(=O)/C=C/c1ccccc1 [Cardamonin] | 0% | 13% | – | –
24 | C=C1CC[C@H]2O[C@]2(C)CC[C@@H]2[C@@H]1CC2(C)C [Caryophyllene oxide] | 13% | 13% | – | –
25 | CC(=O)O.CC(=O)O.CC[C@H](C)C[C@H](C)CCCCCCCCC(=O)N[C@H]1C[C@@H](O)[C@@H](NCCN)NC(=O)[C@@H]2[C@@H](O)CCN2C(=O)[C@H]([C@H](O)CCN)NC(=O)[C@H]([C@H](O)[C@@H](O)c2ccc(O)cc2)NC(=O)[C@@H]2C[C@@H](O)CN2C(=O)[C@H]([C@@H](C)O)NC1=O [Caspofungin (Acetate)] | 27% | 4% | – | –
26 | CCC1=C[C@@H]2CN3CCc4c([nH]c5ccccc45)[C@@](C(=O)OC)(C2)[C@@H]13.O=C(O)C(O)C(O)C(=O)O [Catharanthine (Tartrate)] | – | – | 0% | 12%
27 | CCC1=C[C@@H]2CN3CCc4c([nH]c5ccccc45)[C@@](C(=O)OC)(C2)[C@@H]13 [Catharanthine] | 0% | 0% | – | –
28 | CC1(C)CC[C@]2(C(=O)O)CC[C@]3(C)C(=CC[C@@H]4[C@@]5(C)CC[C@H](O[C@@H]6OC[C@H](O)[C@H](O)[C@H]6O)[C@@](C)(CO)[C@@H]5CC[C@]43C)[C@@H]2C1 [Cauloside A] | 12% | 24% | – | –
29 | CC1(C)CC[C@]2(C(=O)O)CC[C@]3(C)C(=CC[C@@H]4[C@@]5(C)CC[C@H](O[C@@H]6OC[C@H](O)[C@H](O)[C@H]6O[C@@H]6O[C@H](CO)[C@@H](O)[C@H](O)[C@H]6O)[C@@](C)(CO)[C@@H]5CC[C@]43C)[C@@H]2C1 [Cauloside C] | 0% | 10% | – | –
30 | Cn1nnnc1SCC1=C(C(=O)[O-])N2C(=O)[C@@H](NC(=O)[C@H](OC=O)c3ccccc3)[C@H]2SC1.[Na+] [Cefamandole (nafate)] | 0% | 0% | – | –
31 | Cc1nnc(SCC2=C(C(=O)[O-])N3C(=O)[C@@H](NC(=O)Cn4cnnn4)[C@H]3SC2)s1.[Na+] [Cefazolin (sodium)] | 14% | 0% | – | –
32 | CO/N=C(\C(=O)N[C@@H]1C(=O)N2C(C(=O)OCOC(=O)C(C)(C)C)=C(/C=C\c3scnc3C)CS[C@H]12)c1csc(N)n1 [Cefditoren (Pivoxil)] | 36% | 1% | – | –
33 | CO/N=C(\C(=O)N[C@@H]1C(=O)N2C(C(=O)O)=C(C[N+]3(C)CCCC3)CS[C@H]12)c1csc(N)n1.Cl.O.[Cl-] [Cefepime (Dihydrochloride Monohydrate)] | 7% | 1% | – | –
34 | CO/N=C(\C(=O)N[C@@H]1C(=O)N2C(C(=O)OCOC(=O)C(C)(C)C)=C(C)CS[C@H]12)c1csc(N)n1.Cl [Cefetamet pivoxil (hydrochloride)] | 55% | 17% | – | –
35 | CO/N=C(\C(=O)N[C@@H]1C(=O)N2C(C(=O)O)=C(CSc3nnnn3C)CS[C@H]12)c1csc(N)n1.CO/N=C(\C(=O)N[C@@H]1C(=O)N2C(C(=O)O)=C(CSc3nnnn3C)CS[C@H]12)c1csc(N)n1.Cl [Cefmenoxime (hydrochloride)] | 15% | 0% | – | –
36 | CO[C@@]1(NC(=O)CSCC#N)C(=O)N2C(C(=O)[O-])=C(CSc3nnnn3C)CS[C@@H]21.[Na+] [Cefmetazole (sodium)] | 7% | 25% | – | –
37 | O=C([O-])C1=C(CSc2nnnn2CS(=O)(=O)[O-])CS[C@@H]2[C@H](NC(=O)[C@H](O)c3ccccc3)C(=O)N12.[Na+].[Na+] [Cefonicid (sodium)] | 0% | 2% | – | –
38 | CO/N=C(\C(=O)N[C@@H]1C(=O)N2C(C(=O)O)=C(Cn3ccc(=N)n3CCO)CS[C@H]12)c1csc(N)n1.O=S(=O)(O)O [Cefoselis (sulfate)] | 8% | 0% | – | –
39 | CO/N=C(\C(=O)N[C@@H]1C(=O)N2C(C(=O)[O-])=C(COC(C)=O)CS[C@H]12)c1csc(N)n1.[Na+] [Cefotaxime (sodium salt)] | 30% | 34% | – | –
40 | CN(C)CCn1nnnc1SCC1=C(C(=O)O)N2C(=O)[C@@H](NC(=O)Cc3csc(N)n3)[C@H]2SC1.Cl.Cl [Cefotiam (hydrochloride)] | 66% | 37% | – | –
41 | CO[C@@]1(NC(=O)Cc2cccs2)C(=O)N2C(C(=O)[O-])=C(COC(N)=O)CS[C@@H]21.[Na+] [Cefoxitin (sodium)] | 0% | 0% | – | –
